According to patent US20060052582A1, “Identification of inhibitors of mitosis” (priority 2002, published 2006):
One block for each molecule: values may come before it.

Legend:
[1] = test system: HeLa cells; assay: Leptomycin B treatment, endogenous Nercc localization in HeLa cells; type: cell-based, human
Description: (§1) Cells grown on coverslips were rinsed with PBS, fixed in methanol at −20° C. for 15 min, rinsed twice with PBS and incubated for 30 min at room temperature with the appropriate dilution of primary antibody in PBS. To visualize endogenous Nercc, affinity purified anti-Nercc peptide antibodies (N1 and C1) were employed at 10 μg/ml. Microtubules were visualized with a α/β-tubulin specific antibody. Coverslips were washed with PBS, and incubated with labeled secondary antibodies from corresponding species in appropriate combination-fluorescein or rhodamine X-conjugated donkey anti-rabbit, Cy2 or rhodamine X-conjugated donkey anti-mouse (each at 1:450). Incubation was terminated with a rinse in PBS, and the coverslips were mounted on a microscope slide. For immunodetection blocking, Nercc1 C1- or N1-antibody was incubated for 30 min at 37° C. with a 15-fold molar excess of immunizing peptide. After centrifugation at 12,000× g for 10 min, the mixture was used for immunoblotting or immunocytochemistry, as indicated. To examine the effects of Leptomycin B treatment on Nercc localization, HeLa or BHK21 cells were grown to subconfluency on 25 mm round glass coverslips in DMEM supplemented with 10% fetal bovine serum and penicillin-streptomycin. BHK21 cells were transfected (Fugene, Roche Molecular Biochemicals) with the wild type FLAG Nercc; medium was replaced after 18 hours (h). […]

[2] = test system: BHK cells; assay: Leptomycin B treatment, Nercc localization in transfected BHK cells; type: cell-based, hamster
Description: as §1

[3] = test system: p70S6K; assay: Activity of endogenous p70S6K immunoprecipitated from H4-II-E-C3 hepatoma cells; type: cell-based, rat; settings: for IC50: insulin-stimulated H4 cells, insulin plus increasing inhibitor concentrations for 30 minutes, read-out: IC50 for inhibition of p70S6K activity
Description: (§2) Endogenous Nek6 polypeptide was immunoprecipitated from lysates of rat H4-II-E-C3 hepatoma cells following prior treatment for varying times (min) with 100 nM insulin (FIG. 12B), or insulin plus increasing concentrations of either wortmannin (FIG. 12C) or rapamycin (FIG. 12D) for 30 minutes. Nek6 kinase activity was measured using GST p70S6K ΔCT104 (Thr252Ala) as substrate (see, text for details). The activity of endogenous p70S6K αI/II, immunoprecipitated from the same lysates, was measured using a synthetic peptide substrate. Kinase activities are expressed as either fold increase in baseline activity (as in FIG. 12B; open circles show Nek6 activity; filled squares show p70S6K activity) or as histograms depicting the percent activity remaining for Nek6 (filled bars) or p70S6K (open bars) (as in FIGS. 12C and 12D).
The regulation of endogenous Nek6 activity in vivo was examined. An affinity purified anti-Nek6 peptide antibody raised against a polypeptide comprising an amino terminal murine Nek6 peptide AGQPSHMPHGGSPN (SEQ ID NO:30) conjugated to KLH via a cysteine residue as described above, gave highly specific immunoblots and was capable of modest immunoprecipitation of the endogenous Nek6 polypeptide, although at very low efficiency. Thus far, useful antibodies reactive with endogenous Nek7 have not been obtained. Nek6 immunoreactivity was evident in several commonly used mammalian cell lines including COS7 cells (FIG. 12A). […] Moreover, Nek6 had been isolated as a candidate p70S6 Kinase-Thr412 kinase, and insulin regulation of endogenous p70S6 Kinase (also referred to as p70S6K) had previously been characterized in this cell line (see, Price et al., Proc. Natl. Acad. Sci. USA, 87: 7944-7948 (1990)). Insulin generated a rapid, fifteen-fold activation of endogenous p70S6Kinase in serum-deprived H4 cells; under these conditions, however, no change occurred in the basal activity of immunoprecipitated endogenous Nek6 (FIG. 12B). […] The specific activity of Nek6 in H4 cells is, however, sensitive to serum withdrawal and declines progressively by 80% over 48 hours (FIG. 12E). […]

[4] = test system: Nek6; assay: Nek6 kinase assay in vitro with p70S6K ΔCT104 as substrate; type: biochemical, human
Nek6, sequence (Q9HC98 whole entry): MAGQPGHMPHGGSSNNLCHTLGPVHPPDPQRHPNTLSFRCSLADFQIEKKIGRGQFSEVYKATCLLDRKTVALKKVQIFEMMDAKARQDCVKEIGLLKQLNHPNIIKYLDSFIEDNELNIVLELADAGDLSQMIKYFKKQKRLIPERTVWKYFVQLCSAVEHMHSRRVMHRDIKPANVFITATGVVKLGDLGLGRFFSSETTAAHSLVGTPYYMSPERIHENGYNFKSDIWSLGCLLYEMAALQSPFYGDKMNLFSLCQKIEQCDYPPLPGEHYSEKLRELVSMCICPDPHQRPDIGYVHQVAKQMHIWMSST
Description: Transiently expressed FLAG Nek6 was incubated for 1 hour at 4° C. alone or with increasing quantities of either purified prokaryotic recombinant GST (lanes 6-8) or prokaryotic recombinant GST Nercc1 (732-979) (lanes 2-5). Nek6 activity was assayed using p70S6K ΔCT104 as substrate. Upper panel: mean±S.E.M. percent of control Nek6 activity. Lower panels: ^32P autoradiography, Coomassie stain of the GST Nercc1 (732-979) or GST proteins, and western blot of the FLAG Nek6 wild type.
Immunoprecipitates (IP) of recombinant Nek6 (using anti-FLAG or anti-myc antibodies) or endogenous Nek6 were washed three times in the extraction buffer containing 0.5 M LiCl, and twice in kinase buffer (50 mM MOPS pH 7.4, 10 mM MgCl2, 2 mM EGTA, 20 mM β-glycerophosphate). Kinase assays were performed in 30 μl kinase buffer containing 1.5 μg GST-p70S6K ΔCT104 (Thr252Ala) or MBP (0.2 mg/ml) and initiated by addition of [γ-^32P] ATP (5 μM final concentration at 4000 cpm/pmol). Reactions were incubated for 10 minutes at 30° C. and terminated by the addition of 4×SDS sample buffer. Kinase mixtures were resolved by SDS-PAGE, transferred to PVDF membrane, and Nek6 phosphotransferase activity determined by excising Coomassie stained bands corresponding to the substrate and measuring radioactive content by Cerenkov scintillation counting.

[5] = test system: Nek6; assay: Activity of endogenous Nek6 immunoprecipitated from H4-II-E-C3 hepatoma cells; type: cell-based, rat; settings: serum-deprived H4 cells; 100 nM insulin
Description: as §2
Immunoprecipitates (IP) of recombinant Nek6 (using anti-FLAG or anti-myc antibodies) or endogenous Nek6 were washed three times in the extraction buffer containing 0.5 M LiCl, and twice in kinase buffer (50 mM MOPS pH 7.4, 10 mM MgCl2, 2 mM EGTA, 20 mM β-glycerophosphate). […] Kinase mixtures were resolved by SDS-PAGE, transferred to PVDF membrane, and Nek6 phosphotransferase activity determined by excising Coomassie stained bands corresponding to the substrate and measuring radioactive content by Cerenkov scintillation counting. […]

Molecule: CCC(=C/[C@H](C)C/C=C/C(C)=C/[C@@H](C)C(=O)[C@@H](C)[C@H](O)[C@@H](C)C/C(C)=C/C(=O)O)/C=C/[C@@H]1OC(=O)C=C[C@@H]1C [Leptomycin B]
response of endogenous Nercc localization [1]: lack of response | endogenous RanBP1 fluorescence in the nucleus ([2]; 20 nM, 30 minutes incubation): increased dramatically | localization of wild type Nercc ([2]; 2, 20 and 200 nM, 30 minutes to 24 hours): remained cytoplasmic

IC50 [3]: ~0.002 µM
Molecule: CO[C@H]1C[C@@H]2CC[C@@H](C)[C@@](O)(O2)C(=O)C(=O)N2CCCC[C@H]2C(=O)O[C@H]([C@H](C)C[C@@H]2CC[C@@H](O)[C@H](OC)C2)CC(=O)[C@H](C)/C=C(\C)[C@@H](O)[C@@H](OC)C(=O)[C@H](C)C[C@H](C)/C=C/C=C/C=C/1C [rapamycin]

Molecule: COC[C@H]1OC(=O)c2coc3c2[C@@]1(C)C1=C(C3=O)[C@@H]2CCC(=O)[C@@]2(C)C[C@H]1OC(C)=O [wortmannin]
IC50 [3]: ~0.03 µM

mode of inhibition of Nek6 catalytic activity [4]: noncompetitive
Molecule: GST Nercc1 (732-979): fusion protein of GST linked to Nercc amino acids 732-979 of SEQ ID NO:2
effect on enzymatic activity of preactivated wild type Nek6 ([4]; concentrations far below those of p70S6K ΔCT104 substrate): substantial inhibition

Molecule: Insulin: insulin, used at 100 nM to stimulate H4 cells
activation of endogenous p70S6Kinase ([3]; serum-deprived H4 cells, 100 nM insulin): fifteen-fold | change in basal activity of immunoprecipitated endogenous Nek6 [5]: no change
